# In US20140341853A1, “Bacteria-Mediated Therapy for Cancer” (priority 2013, published 2014):
# System: yeast cells
# Assay: MTT assay using transformed E. coli, yeast cells and Daun02 as the prodrug
# Type: cell-based
# Description: In an exemplary embodiment, E. coli BL21 cells were transformed with the pSV-β-Galactosidase plasmid which contains a gene for beta-gal (available from Promega, Wisconsin, USA). Other types of bacteria and differently configured plasmids can also be used. Yeast can act as a eukaryotic cell model for cancer cells. Yeast cells contain mitochondria and a number of proteins homologous to those in humans. A MTT assay was performed using the transformed E. coli, yeast cells, and Daun02 as the prodrug. MTT is a tetrazolium dye which is converted into an insoluble purple-colored product (formazan) by live cells. The presence of formazan was measured spectrophotometrically. […] FIGS. 2A and 2B illustrate results of studies in which growing yeast cells were exposed to transformed E. coli BL21 cells and the prodrug Daun02. Bacteria and yeast were cultured over night and allowed to grow for 3 hours to be in optimal linear growth phase and samples were incubated together for approximately 5.5 or 10 hours in a 96 well microwell plate. The antibiotic kanamycin was added to all sample wells to reduce bacterial background signal. MTT dye was then added to wells and samples were incubated for three hours. A solubilization solution was then added, incubated for one hour, and the optical density was measured at 570 nm with a microplate reader. The absorbance at 570 nm of bacteria-only and bacteria and yeast-only samples were also measured. […] FIGS. 2A and 2B display results from different treatment times: 5.5 hours and 10 hours, respectively. […] Samples C and D contained beta-gal expressing bacteria, prodrug, and yeast cells. […] The length of time can be increased or decreased to increase the effectiveness of the treatment. […] A 2-Sample T-Test between the control sample and Sample C in the 10 hour experiment returned a p-value of 0.00296. […] Both p-values are smaller than the alpha level of 0.05 chosen before experimentation.
smiles,measurement,setting,value
"COc1cccc2c1C(=O)c1c(O)c3c(c(O)c1C2=O)C[C@@](O)(C(C)=O)C[C@@H]3O[C@H]1C[C@H](NC(=O)OCc2ccc(O[C@@H]3O[C@H](CO)[C@H](O)[C@H](O)[C@H]3O)c([N+](=O)[O-])c2)[C@H](O)[C@H](C)O1 [Daun02, N-[4″-(β-galactopyranosyl)-3″-nitrobenzyloxycarbonyl]daunomycin]",MTT absorbance at 570 nm (yeast cell survival),"Sample C: 2.5 μM Daun02 with beta-gal expressing E. coli BL21, 10 hours, p-value 0.00296 vs control",yeast cell death
same,MTT absorbance at 570 nm (yeast cell survival),"Sample D: 5 μM Daun02 with beta-gal expressing E. coli BL21, 5.5 hours, bacterial background subtracted",low absorption values
same,MTT absorbance at 570 nm (yeast cell survival),"Sample D: 5 μM Daun02 with beta-gal expressing E. coli BL21, 10 hours, p-value 0.00593 vs control",yeast cell death
same,MTT absorbance at 570 nm (yeast cell survival),"Samples A and B: yeast and prodrug, no bacteria (no added beta-gal enzyme), 5.5 and 10 hours",close to the control values
